Results reported in patent US20150297619A1, “METHODS AND COMPOSITIONS FOR PRESERVING THE MUCOSAL BARRIER” (priority 2014, published 2015).

How the values were obtained:
intestinal villi cells = experiment: TUNEL labeling of ischemic intestine (apoptosis); design: species or system rat; settings: after 2 hrs ex vivo ischemia
Text: To assess the level of apoptosis after ischemia, in situ terminal transferase dUTP nick end labeling (TUNEL) labeling was completed using a kit (Trevigen, Gaithersburg, Md.) according to manufacturer's instructions. Sections were counterstained with 0.05% toluidine blue in 1% boric acid to contrast 3,3′-diaminobenzidine (DAB) positive nuclei (brown) from negatively stained nuclei (blue). Prior to mounting, all slides were dehydrated (70, 95, 100% ethanol) and cleaned with xylene. After air-drying overnight, sections were mounted using Hard Set Mounting Media (Vector Laboratories, Burlingame, Calif.). Digital images were captured with a 20× objective (numerical aperture 0.5) and digitally montaged together after background subtraction.

[1] = system: MMP-9 dimers, pro-MMP-2, MMP-2, MMP-1 or MMP-3; experiment: Gelatin gel zymography of pre-ischemic intestinal homogenates renatured with inhibitor: MMP bands; type: biochemical, rat; settings: inhibitor in renaturing and developing buffer: tranexamic acid 20 mM, doxycycline 1 mg/ml, GM-6001 1 ug/ml
Protocol: Gelatin Gel Zymography—Segments 2 and 7 from pre-ischemic intestines were homogenized (0.1 g tissue/ml homogenization buffer; PBS pH 7.4 with 0.5% hexadecyltrimethyl bromide) and centrifuged at 1.4×10^4 g for 20 minutes. Supernatants were stored at −80° C. until samples were processed. To assess the proteolytic activities of individual proteases in intestinal tissue samples, sample volumes of 1 μl (with 2 μg of protein) were separated by gel electrophoresis in SDS-PAGE gels containing 80 μg/ml gelatin. […] The molecular weights of the proteases were estimated by use of a standard protein ladder (Invitrogen). Gels were digitized and bands were analyzed by densitometry in ImageJ (rsbweb.nih.gov/ij/). […] These gels were compared to a concurrently run gel processed normally.

20 kDa serine proteases = experiment: Gelatin gel zymography of pre-ischemic intestinal homogenates renatured with inhibitor: serine protease bands; type: biochemical, rat; settings: inhibitor in renaturing and developing buffer: tranexamic acid 20 mM, doxycycline 1 mg/ml, GM-6001 1 ug/ml
Protocol: Gelatin Gel Zymography—Segments 2 and 7 from pre-ischemic intestines were homogenized (0.1 g tissue/ml homogenization buffer; PBS pH 7.4 with 0.5% hexadecyltrimethyl bromide) and centrifuged at 1.4×10^4 g for 20 minutes. Supernatants were stored at −80° C. until samples were processed.
To assess the proteolytic activities of individual proteases in intestinal tissue samples, sample volumes of 1 μl (with 2 μg of protein) were separated by gel electrophoresis in SDS-PAGE gels containing 80 μg/ml gelatin. […] The molecular weights of the proteases were estimated by use of a standard protein ladder (Invitrogen). Gels were digitized and bands were analyzed by densitometry in ImageJ (rsbweb.nih.gov/ij/).
These gels were compared to a concurrently run gel processed normally.

MMP gelatinase activity bands (220 kDa MMP-9 dimers, pro-MMP-2, MMP-2, 50 kDa band) [1] | SMILES | apoptosis (TUNEL labeling) (intestinal villi cells) | 20 kDa serine protease activity bands (20 kDa serine proteases)
– | O=C[C@H](O)[C@@H](O)[C@H](O)[C@H](O)CO [Glucose, glucose] | little apoptosis in the villi | –
significantly reduce | NC[C@H]1CC[C@H](C(=O)O)CC1 [tranexamic acid] | – | no significant effect
